“Also recorded” adds a separate entry of the source. Like-named read-outs stand apart in the source and are kept apart here.
Legend:
[1] = tested on: MOLM14 cells (FLT3 ITD); experiment: annexin V-based apoptosis assay, MOLM14; type: cell-based; details: Homo sapiens, MOLM-14, read-out: IC50 induction of apoptosis
Procedure: (§1) Translocation of phosphatidylserine from the inner to the outer leaflet of the plasma membrane as an early indicator of apoptosis was analyzed using an Annexin V-based assay (Immunotech, Marseilles, France) and a FACScalibur® flow cytometer loaded with CellQuest® analysis software (BD, Heidelberg, Germany).

[2] = tested on: MOLM14 cells; experiment: cell cycle analysis by PI-stain flow cytometry, MOLM14; type: cell-based, human; details: 72h
Procedure: (§2) Accumulation of cells in the G1/G0, S or G2/M phases was monitored 6, 24 and 72 hours after application of either agent.
(§3) A propidium iodide-based flow cytometry assay was assessed as described previously. In short, a propidium iodide stain assay is used to segregate cells according to the DNA content, which is graphically shown in a histogram plot (high content in G2/M, intermediate content in S-phase, low content in G1/G0 and lowest content in dead/apoptotic cells, which defines a sub-G1/G0 fraction),

[3] = tested on: K562 cells; experiment: cell cycle analysis by PI-stain flow cytometry, K562; type: cell-based, human; details: 72h
Procedure: as §2, §3

[4] = tested on: Ba/F3 FLT3 S451F; experiment: Induction of apoptosis, isogenic Ba/F3 model; type: cell-based, murine
Procedure: (§4) FLT3 S451F cDNA cloned into a pCMVneo plasmid vector [53] was generously provided by Dr. Fröhling, University of Ulm, Germany. KIT wildtype cDNA cloned into a pJP1563 plasmid vector was obtained from the DNASU Plasmid Repository at the Biodesign Institute of the Arizona State University (ASU). Lipofection transfection into the parental Ba/F3 cell line was performed to stably express KIT wildtype or mutant FLT3 S451F by double selection for neomycin (pCMVneo plasmid), blasticidin (pJP1563 plasmid) or […] (G418; all other plasmids) resistance and IL-3-independent growth. The Ba/F3 KIT wildtype cell line was cultured using recombinant human stem cell factor (SCF/KIT Ligand, R&D, Minneapolis, MN) as a growth supplement.
as §1

[5] = tested on: Ba/F3 KIT WT; experiment: Induction of apoptosis, isogenic Ba/F3 model; type: cell-based, murine
Procedure: as §4, §1

[6] = tested on: Ba/F3 BCR/ABL1; experiment: Induction of apoptosis, isogenic Ba/F3 model; type: cell-based, murine
Procedure: as §1

[7] = tested on: Ba/F3 FLT3 D835Y; experiment: Induction of apoptosis, isogenic Ba/F3 model; type: cell-based, murine
Procedure: as §1

[8] = tested on: Ba/F3 FLT3 ITD; experiment: Induction of apoptosis, isogenic Ba/F3 model; type: cell-based, murine
Procedure: as §1

[9] = tested on: Ba/F3 FLT3 K663Q; experiment: Induction of apoptosis, isogenic Ba/F3 model; type: cell-based, murine
Procedure: as §1

[10] = tested on: Ba/F3 FLT3 N841H; experiment: Induction of apoptosis, isogenic Ba/F3 model; type: cell-based, murine
Procedure: as §1

[11] = tested on: Ba/F3 FLT3 WT; experiment: Induction of apoptosis, isogenic Ba/F3 model; type: cell-based, murine
Procedure: as §1

[12] = tested on: Ba/F3 KIT D816F; experiment: Induction of apoptosis, isogenic Ba/F3 model; type: cell-based, murine
Procedure: as §1

[13] = tested on: Ba/F3 KIT D816V; experiment: Induction of apoptosis, isogenic Ba/F3 model; type: cell-based, murine
Procedure: as §1

[14] = tested on: Ba/F3 KIT D816Y; experiment: Induction of apoptosis, isogenic Ba/F3 model; type: cell-based, murine
Procedure: as §1

[15] = tested on: Ba/F3 Parental (w/ IL3); experiment: Induction of apoptosis, isogenic Ba/F3 model; type: cell-based, murine
Procedure: as §1

[16] = Inhibition of proliferation (XTT), isogenic Ba/F3 model; type: cell-based, murine; details: mouse, Ba/F3 parental cells (with IL3), Ba/F3 Parental (w/ IL3)
[17] = tested on: Ba/F3 Parental (w/ IL3); experiment: as above; type: cell-based, murine
[18] = tested on: Ba/F3 KIT D816V; experiment: as above; type: cell-based, murine; details: Mus musculus
[19] = tested on: Ba/F3 KIT D816Y; experiment: as above; type: cell-based, murine; details: Mus musculus
[20] = tested on: Ba/F3 FLT3 ITD; experiment: as above; type: cell-based, murine
[21] = tested on: Ba/F3 FLT3 N841H; experiment: as above; type: cell-based, murine; details: Mus musculus
[22] = tested on: native mononuclear cells derived from bone marrow donors; experiment: Annexin V/PI apoptosis assay, donor mononuclear cells ex vivo; type: cell-based, human
Procedure: However, this observation will need prospective verification on a larger patient cohort.
as §1

[23] = tested on: native leukemia cells (AML patient samples); experiment: XTT-based proliferation assay, native leukemia cells ex vivo
Procedure: (§5) Bone marrow aspirate and peripheral blood samples from consented patients with acute leukemia as well as samples from healthy blood and bone marrow donors were collected in 5000 U heparin with the approval of the ethics committee of the Medical Faculties of the University of Tübingen or the University of Ulm. Mononuclear cells were isolated by Ficoll-Hypaque density gradient fractionation. Cells were cultured in DMEM medium, supplemented with 20% fetal bovine serum (GIBCO/Invitrogen, Darmstadt, Germany or Biochrom AG, Berlin, Germany), 1% penicillin G (10,000 units/mL), and streptomycin (10,000 μg/mg) and 2 mmol/L L-glutamine.

[24] = tested on: mononuclear cells of a bone marrow donor; experiment: XTT-based proliferation assay, donor mononuclear cells ex vivo
Procedure: as §5

[25] = BaF3, 10 nM, read-out: Inhibition of proliferation At 10 nM (% alive)
[26] = BaF3, 100 nM, read-out: Inhibition of proliferation At 100 nM (% alive)

Cn1c(=O)n(-c2ccc(C(C)(C)C#N)cc2)c2c3cc(-c4cnc5ccccc5c4)ccc3ncc21 [NVP-BEZ235]
IC50 [1]: > 10000 nM | sub-G1 ([2]; 1000 nM): 19% | sub-G1 ([2]; 10 000 nM): 35% | sub-G1 ([3]; 1000 nM): 13% | sub-G1 ([3]; 10 000 nM): 17% | Induction of apoptosis At 1000 nM (% apopt.) ([4]; 1000 nM): 49% | Induction of apoptosis At 5000 nM (% apopt.) ([4]; 5000 nM): 70% | IC50 ([4]; Mus musculus, BaF3): 741 nM | Induction of apoptosis At 1000 nM (% apopt.) ([5]; 1000 nM): 32% | Induction of apoptosis At 5000 nM (% apopt.) ([5]; 5000 nM): 85% | IC50 ([5]; Mus musculus, BaF3): 1400 nM | Induction of apoptosis At 1000 nM (% apopt.) ([6]; 1000 nM): 38% | Induction of apoptosis At 5000 nM (% apopt.) ([6]; 5000 nM): 39% | Induction of apoptosis IC50 ([6]; not reached = > 5 000 nM): failed to achieve IC50; also recorded: Not reached | Induction of apoptosis At 1000 nM (% apopt.) ([7]; 1000 nM): 19% | Induction of apoptosis At 5000 nM (% apopt.) ([7]; 5000 nM): 28% | Induction of apoptosis IC50 ([7]; not reached = > 5 000 nM): Not reached | Induction of apoptosis At 1000 nM (% apopt.) ([8]; 1000 nM): 19% | Induction of apoptosis At 5000 nM (% apopt.) ([8]; 5000 nM): 27% | IC50 ([8]; Mus musculus, not reached = > 5 000 nM): > 10000 nM | Induction of apoptosis At 1000 nM (% apopt.) ([9]; 1000 nM): 17% | Induction of apoptosis At 5000 nM (% apopt.) ([9]; 5000 nM): 16% | Induction of apoptosis IC50 ([9]; not reached = > 5 000 nM): Not reached | Induction of apoptosis At 1000 nM (% apopt.) ([10]; 1000 nM): 19% | Induction of apoptosis At 5000 nM (% apopt.) ([10]; 5000 nM): 22% | Induction of apoptosis IC50 ([10]; not reached = > 5 000 nM): Not reached | Induction of apoptosis At 1000 nM (% apopt.) ([11]; 1000 nM): 38% | Induction of apoptosis At 5000 nM (% apopt.) ([11]; 5000 nM): 40% | IC50 ([11]; Mus musculus, BaF3): 8300 nM | Induction of apoptosis At 1000 nM (% apopt.) ([12]; 1000 nM): 40% | Induction of apoptosis At 5000 nM (% apopt.) ([12]; 5000 nM): 87% | IC50 ([12]; Mus musculus, BaF3): 1240 nM | Induction of apoptosis At 1000 nM (% apopt.) ([13]; 1000 nM): 4% | Induction of apoptosis At 5000 nM (% apopt.) ([13]; 5000 nM): 23% | Induction of apoptosis IC50 ([13]; not reached = > 5 000 nM): Not reached | Induction of apoptosis At 1000 nM (% apopt.) ([14]; 1000 nM): 5% | Induction of apoptosis At 5000 nM (% apopt.) ([14]; 5000 nM): 73% | IC50 ([14]; Mus musculus, BaF3): 1360 nM | Induction of apoptosis At 1000 nM (% apopt.) ([15]; 1000 nM): 3% | Induction of apoptosis At 5000 nM (% apopt.) ([15]; 5000 nM): 6% | Induction of apoptosis IC50 ([15]; not reached = > 5 000 nM): Not reached* | viability at 0.01 µM ([16]; 10 nM, read-out: Inhibition of proliferation At 10 nM (% alive)): 89% | viability at 0.1 µM ([16]; 100 nM, read-out: Inhibition of proliferation At 100 nM (% alive)): 98% | IC50 ([17]; Ba/F3 Parental (w/ IL3)): 2400 nM | IC50 ([17]; Mus musculus, BaF3, Ba/F3 Parental (w/ IL3)): ~2400 nM | IC50 ([18]; BaF3): 8 nM | viability at 0.01 µM [18, 25]: 40% | viability at 0.1 µM [18, 26]: 38% | IC50 ([19]; BaF3): 72 nM | viability at 0.01 µM [19, 25]: 64% | viability at 0.1 µM [19, 26]: 62% | IC50 [20]: 7 nM | viability at 0.01 µM ([20]; Mus musculus, 10 nM, read-out: Inhibition of proliferation At 10 nM (% alive)): 13% | viability at 0.1 µM ([20]; Mus musculus, 100 nM, read-out: Inhibition of proliferation At 100 nM (% alive)): 4% | IC50 ([20]; Mus musculus, Ba/F3 FLT3-ITD): < 10 nM | IC50 ([21]; BaF3): 9 nM | viability at 0.01 µM [21, 25]: 43% | viability at 0.1 µM [21, 26]: 47% | Apoptosis IC50 ([22]; Pt. Nr. 538 (donor)): Not reached | Apoptosis IC50 ([22]; Pt. Nr. 554 (donor)): Not reached | IC50 ([23]; Homo sapiens, read-out: Proliferation IC50, Pt. Nr. 303, AML negative for FLT3 or KIT mutations, ex vivo): > 5000 nM | IC50 ([23]; Homo sapiens, read-out: Proliferation IC50, Pt. Nr. 556, FLT3 mutant-TKD2 positive AML, ex vivo): 24 nM | Proliferation IC50 ([23]; Pt. Nr. 556, FLT3 mutant-TKD2 positive AML, ex vivo): low nanomolar range | IC50 ([23]; read-out: Proliferation IC50, Pt. Nr. 303, AML negative for FLT3 or KIT mutations, ex vivo): 6140 nM | IC50 ([24]; Homo sapiens, read-out: Proliferation IC50, Pt. Nr. 552 (donor), bone marrow donor, ex vivo): > 1000 nM | IC50 ([24]; read-out: Proliferation IC50, Pt. Nr. 552 (donor), bone marrow donor, ex vivo): 1020 nM

— PMC3689638, “Cell cycle-dependent activity of the novel dual PI3K-MTORC1/2 inhibitor NVP-BGT226 in acute leukemia” (Molecular Cancer, 2013)
